Experimental data published in patent EP2604596A1, “Polymorphs of imatinib” (priority 2011, dated 2013).

Experiment: Non-hygroscopicity test (storage in stability chambers, water content)
Assay type: physicochemical
Conditions: mesylate; for Water Content after 3 months (%): 40°C at humidity of 75%, for 3 months; for Initial Water Content (%): before storage
Protocol: In the present invention, samples of obtained crystalline forms are stored […] in stability chambers under following conditions of 40°C and humidity of 75%, for 3 months to support non-hygroscopic nature of novel forms of imatinib mesylate.
Non-hygroscopicity test results are listed below in table 1.

Row | SMILES | Water Content after 3 months (%) | Initial Water Content (%)
1 | CS(=O)(=O)O.Cc1ccc(NC(=O)c2ccc(CN3CCN(C)CC3)cc2)cc1Nc1nccc(-c2cccnc2)n1 [Polymorph Y sample, 4-[(4-Methyl-1-piperazinyl)methyl]-N-[4-methyl-3-[[4-(3-pyridinyl)-2-pyrimidinyl]amino]phenyl]-benzamide mesylate] | 0.50 | 0.40
2 | CS(=O)(=O)O.Cc1ccc(NC(=O)c2ccc(CN3CCN(C)CC3)cc2)cc1Nc1nccc(-c2cccnc2)n1 [Polymorph B sample, 4-[(4-Methyl-1-piperazinyl)methyl]-N-[4-methyl-3-[[4-(3-pyridinyl)-2-pyrimidinyl]amino]phenyl]-benzamide mesylate] | 0.48 | 0.37

The next lines start with the values.

Row | Water Content after 3 months (%) | Initial Water Content (%) | SMILES
3 | 0.48 | 0.38 | CS(=O)(=O)O.Cc1ccc(NC(=O)c2ccc(CN3CCN(C)CC3)cc2)cc1Nc1nccc(-c2cccnc2)n1 [Polymorph M sample, 4-[(4-Methyl-1-piperazinyl)methyl]-N-[4-methyl-3-[[4-(3-pyridinyl)-2-pyrimidinyl]amino]phenyl]-benzamide mesylate]
4 | 0.50 | 0.42 | CS(=O)(=O)O.Cc1ccc(NC(=O)c2ccc(CN3CCN(C)CC3)cc2)cc1Nc1nccc(-c2cccnc2)n1 [Polymorph P sample, 4-[(4-Methyl-1-piperazinyl)methyl]-N-[4-methyl-3-[[4-(3-pyridinyl)-2-pyrimidinyl]amino]phenyl]-benzamide mesylate]
5 | 0.60 | 0.34 | CS(=O)(=O)O.Cc1ccc(NC(=O)c2ccc(CN3CCN(C)CC3)cc2)cc1Nc1nccc(-c2cccnc2)n1 [Polymorph β reference sample, 4-[(4-Methyl-1-piperazinyl)methyl]-N-[4-methyl-3-[[4-(3-pyridinyl)-2-pyrimidinyl]amino]phenyl]-benzamide mesylate, reference compound]
